Consider 24 compounds from patent US12486251B2 (PHARMABLOCK SCIENCES (NANJING) , INC., priority 2020, dated 2025).

The target of this test is CBP recombinant proteins (Homo sapiens (Human), UniProt Q92793). Description: Competitive HTRF assay for affinity to CBP recombinant protein. In kind it is binding. The following applies: His-tagged CBP 5 nM, biotin-labeled ligand 50 nM, 1% DMSO. The method, then:
The affinity of the compounds synthesized in the present patert to the CBP recombinant proteins was determined by competitive HTRF method. His-tagged cyclic adenosine monophosphate response element binding protein (CREB-binding protein, CBP) was expressed in Escherichia coli system and further purified. CBP biotinylated ligands were all self-made. The BL21 star (DE3) competert cells transfected with His-tagged CBP protein genes at N-terminal were cultured at 37° C. for 16 h until the OD value was between 0.6 and 0.8, induced by 0.5 mM of IPTG and cultured overnight. The supernatant of cell lysate was purified by a Ni-ion affinity column and a Superdex75 molecular sieve column sequentially. The purity of resulting CBP proteins was 95%. The fluorescent donor reagent MAb Anti 6HIS—Eu cryptate Gold (Cisbio #61HI2KLA), the receptor reagent Streptavidin-XL665 (#610SAXLA) and the detection buffer (#62SDBRDD) required for HTRF were obtained from CISBIO BIOASSAYS (Codolet, France). Tris(2-carboxyethyl)phosphine hydrochloride (TCEP), sodium chloride, adenosine triphosphate (ATP), Tween-20, dimethylsulfoxide (DMSO), bovine serum albumin (BSA) and HEPES buffer were obtained from SIGMA at the highest level commercially available.
The general procedure of the competitive HTRF assay for the affinity to CBP recombinant proteins is as follows: 0.05% Tween-20 and 1 mM of TCEP were added immediately before the assay, and the assay was performed in a buffer consisting of 0.1 mg/ml BSA, 50 mM of HEPES and 5 mM of NaCl of pH 7.5. 2.5 μL of compound solution in a determination buffer with 4% DMSO and 5 μL of CBP solution in a determination buffer were added to a white low-volume 384-well microtiter plate, incubated at room temperature for 20 min, and then incubated at room temperature for 40 min by adding 2.5 μL of biotin-labeled ligand solution to the determination buffer. The final concentrations of CBP, biotin-labeled ligand and DMSO were 5 nM, 50 nM and 1%, respectively. Then, 5 μL of MAb Anti 6HIS—Eu cryptate Gold and […] of Streptavidin-XL665 in detection buffers from the manufacturer were added to the mixture, and the mixture was incubated for another 60 min. The final concentration of Streptavidin-XL665 was 12.5 nM, and MAb Anti 6HIS—Eu cryptate Gold was diluted according to the final concentration provided by the supplier. The multimode reader Spark from TECAN (Mannedorf, Switzerland) was used to read the plate to detect the homogeneous time-resolved fluorescence intensity of two groups, in which the excitation wavelength was 320 nm and the emission wavelengths were 665 nm and 620 nm. The IC50 value of the inhibitor was obtained by fitting fluorescence intensity ratios at 665 nm/620 nm with respect to the inhibitor concentration in an S-shaped dose-response curve by using Prism 7 (La Jolla, 15 CA).
(In general: In TR-FRET formats the signal depends on donor and acceptor labels being close together.)

As a reminder, the IC50 is the concentration at which inhibition is half-maximal.

Sequence of CBP recombinant proteins (Q92793 whole entry): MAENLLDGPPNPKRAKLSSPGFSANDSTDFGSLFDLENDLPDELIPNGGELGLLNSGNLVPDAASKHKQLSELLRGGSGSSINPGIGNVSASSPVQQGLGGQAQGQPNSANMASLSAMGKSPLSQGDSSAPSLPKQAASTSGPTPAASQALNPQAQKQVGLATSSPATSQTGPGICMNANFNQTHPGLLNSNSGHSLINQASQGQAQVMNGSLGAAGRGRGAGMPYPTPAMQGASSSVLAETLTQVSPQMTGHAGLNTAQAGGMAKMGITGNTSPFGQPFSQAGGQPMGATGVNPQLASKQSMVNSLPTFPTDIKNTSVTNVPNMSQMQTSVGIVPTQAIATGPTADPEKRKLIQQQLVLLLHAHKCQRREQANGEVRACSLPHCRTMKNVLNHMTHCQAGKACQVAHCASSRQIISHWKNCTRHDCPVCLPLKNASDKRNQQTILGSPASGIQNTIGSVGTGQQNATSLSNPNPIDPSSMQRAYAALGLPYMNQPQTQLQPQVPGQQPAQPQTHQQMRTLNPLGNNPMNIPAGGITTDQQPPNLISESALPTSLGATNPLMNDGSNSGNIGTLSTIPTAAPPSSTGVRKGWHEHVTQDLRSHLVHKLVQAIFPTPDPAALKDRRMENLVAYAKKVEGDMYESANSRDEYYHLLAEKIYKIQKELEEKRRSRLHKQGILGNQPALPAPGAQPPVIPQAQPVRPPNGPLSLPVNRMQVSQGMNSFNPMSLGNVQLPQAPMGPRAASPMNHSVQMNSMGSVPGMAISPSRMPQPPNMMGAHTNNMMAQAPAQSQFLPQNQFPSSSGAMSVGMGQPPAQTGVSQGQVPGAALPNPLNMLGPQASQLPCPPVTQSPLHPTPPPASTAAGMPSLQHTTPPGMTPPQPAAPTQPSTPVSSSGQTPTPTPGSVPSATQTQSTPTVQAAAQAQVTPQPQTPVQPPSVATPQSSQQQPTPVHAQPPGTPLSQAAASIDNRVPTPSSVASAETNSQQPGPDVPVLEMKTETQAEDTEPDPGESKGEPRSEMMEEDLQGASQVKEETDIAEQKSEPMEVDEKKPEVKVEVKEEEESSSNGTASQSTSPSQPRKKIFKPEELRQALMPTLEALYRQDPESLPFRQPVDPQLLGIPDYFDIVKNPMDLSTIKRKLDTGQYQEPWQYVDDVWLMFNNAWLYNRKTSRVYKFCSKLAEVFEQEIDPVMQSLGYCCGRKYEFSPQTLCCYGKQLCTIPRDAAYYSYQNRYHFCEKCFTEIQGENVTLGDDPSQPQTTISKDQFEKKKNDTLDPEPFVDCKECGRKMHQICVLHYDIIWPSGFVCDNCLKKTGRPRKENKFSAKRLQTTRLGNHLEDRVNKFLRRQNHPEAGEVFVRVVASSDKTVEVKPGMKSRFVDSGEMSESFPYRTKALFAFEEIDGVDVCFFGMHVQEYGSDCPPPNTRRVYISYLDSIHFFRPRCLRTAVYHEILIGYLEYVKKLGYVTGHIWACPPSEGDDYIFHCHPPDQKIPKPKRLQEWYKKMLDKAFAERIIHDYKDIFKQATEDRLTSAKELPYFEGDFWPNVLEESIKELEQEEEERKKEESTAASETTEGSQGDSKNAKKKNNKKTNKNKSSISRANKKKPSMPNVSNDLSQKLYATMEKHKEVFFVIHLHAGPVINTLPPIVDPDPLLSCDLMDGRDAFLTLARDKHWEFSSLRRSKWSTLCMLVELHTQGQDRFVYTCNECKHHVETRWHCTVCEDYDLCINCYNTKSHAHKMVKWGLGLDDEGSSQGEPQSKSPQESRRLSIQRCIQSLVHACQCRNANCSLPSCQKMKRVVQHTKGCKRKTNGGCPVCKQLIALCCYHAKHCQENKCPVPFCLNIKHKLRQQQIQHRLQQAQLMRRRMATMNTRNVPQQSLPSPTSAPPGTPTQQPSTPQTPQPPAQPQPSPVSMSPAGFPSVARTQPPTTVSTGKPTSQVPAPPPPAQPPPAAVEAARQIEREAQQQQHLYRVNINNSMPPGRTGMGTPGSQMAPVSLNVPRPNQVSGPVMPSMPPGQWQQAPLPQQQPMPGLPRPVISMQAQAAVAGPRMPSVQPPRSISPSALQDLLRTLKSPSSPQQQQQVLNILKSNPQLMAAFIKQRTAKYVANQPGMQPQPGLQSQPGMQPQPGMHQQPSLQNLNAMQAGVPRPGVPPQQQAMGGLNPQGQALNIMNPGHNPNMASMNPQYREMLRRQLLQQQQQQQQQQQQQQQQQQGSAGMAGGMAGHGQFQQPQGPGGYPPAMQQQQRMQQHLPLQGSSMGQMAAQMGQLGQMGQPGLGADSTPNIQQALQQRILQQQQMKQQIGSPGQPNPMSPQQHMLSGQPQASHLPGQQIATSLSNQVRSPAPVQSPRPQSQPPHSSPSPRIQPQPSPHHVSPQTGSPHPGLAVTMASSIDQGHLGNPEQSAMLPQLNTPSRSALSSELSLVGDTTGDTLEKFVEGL

`CNC(=O)c1cc2cc(N3CCCS3(=O)=O)ccc2c(N2CCCc3cc(-c4cnn(C)c4)c(C(F)F)cc32)n1` [Example 26, 1-(7-(difluoromethyl)-6-(1-methyl-1H-pyrazol-4-yl)-3,4-dihydroquinolin-1(2H)-yl)-6-(1,1-dioxyisothiazolidin-2-yl)-N-methyliso-quinoline-3-carboxamide]: the IC50 came to 11 nM.
As to `CNC(=O)c1cc2cc(N3CCN(C)CC3=O)ccc2c(N2CCCc3cc(-c4cnn(C)c4)c(C(F)F)cc32)n1` [Example 27, 1-[7-difluoromethyl-6-(1-methyl-1H-pyrazol-4-yl)-3,4-dihydro-2H-quinolin-1-yl]-6-(4-methyl-2-oxo-piperazin-1-yl)-isoquinoline-3-carboxylic acid methylamide], the 50% inhibitory concentration (IC50) came to 3.3 nM.
As to `CNC(=O)c1cc2cc(N3CCOCC3=O)ccc2c(N2CCCc3cc(-c4cnn(C)c4)c(C(F)F)cc32)n1` [Example 28, 1-[7-difluoromethyl-6-(1-methyl-1H-pyrazol-4-yl)-3,4-dihydro-2H-quinolin-1-yl]-6-(3-oxo-morpholin-4-yl)-isoquinoline-3-carboxylic acid methylamide], the IC50 came out at 5.3 nM.
The figure for `CNC(=O)c1cc2cc(C3CCCO3)ccc2c(N2CCCc3cc(-c4cnn(C)c4)c(C(F)F)cc32)n1` (stereo not drawn) [Example 29, 1-[7-difluoromethyl-6-(1-methyl-1H-pyrazol-4-yl)-3,4-dihydro-2H-quinolin-1-yl]-6-(tetrahydrofuran-2-yl)-isoquinoline-3-carboxylic acid methylamide] is 16 nM.
The same measure for `CNC(=O)c1cc2ccccc2c(N2CCCc3cc(-c4cncnc4)c(C(F)F)cc32)n1` [Example 30, 1-(7-difluoromethyl-6-pyrimidine-5-yl-3,4-dihydro-2H-quinolin-1-yl)-isoquinoline-3-carboxylic acid methylamide]: 22 nM; for `CNC(=O)c1cc2ccccc2c(N2CCCc3cc(C4=CCOCC4)c(C(F)F)cc32)n1` [Example 31, 1-[7-difluoro-methyl-6-(3,6-dihydro-2H-pyran-4-yl)-3,4-dihydro-2H-quino-lin-1-yl]-iso-quinoline-3-carboxylic acid methylamide]: 49 nM; for `CCn1cc(-c2cc3c(cc2C(F)F)N(c2nc(C(=O)NC)cc4ccccc24)CCC3)cn1` [Example 32, 1-[7-difluoro-methyl-6-(1-ethyl-1H-pyrazol-4-yl)-3,4-dihydro-2H-quinolin-1-yl]-isoquino-line-3-carboxylic acid methylamide]: 36 nM.
As for `CNC(=O)c1cc2ccccc2c(N2CCCc3cc(-c4cnn(C5CC5)c4)c(C(F)F)cc32)n1` [Example 33, 1-[6-(1-cyclo-propyl-1H-pyrazol-4-yl)-7-difluoromethyl-3,4-dihydro-2H-quino-lin-1-yl]-iso-quinoline-3-carboxylic acid methylamide], the half-maximal inhibitory concentration (IC50) was 44 nM.
Consider `CNC(=O)c1cc2ccccc2c(N2CCCc3cc(-c4ccn(C)n4)c(C(F)F)cc32)n1` [Example 34, 1-[7-difluoro-methyl-6-(1-methyl-1H-pyrazol-3-yl)-3,4-dihydro-2H-quinolin-1-yl]-isoquinoline-3-carboxylic acid methylamide], for which the 50% inhibitory concentration (IC50) was 32 nM.
The same measure for `CNC(=O)c1cc2ccccc2c(N2CCCc3cc(-c4cnn(CCO)c4)c(C(F)F)cc32)n1` [Example 35]: 16 nM; for `CNC(=O)c1cc2cccnc2c(N2CCCc3cc(-c4cncnc4)c(C(F)F)cc32)n1` [Example 37, 8-(7-difluoro-methyl-6-pyrimidine-5-yl-3,4-dihydro-2H-quinolin-1-yl)-[1,7] naphthyridine-6-carboxylic acid methylamide]: 16 nM; for `CNC(=O)c1cc2cccnc2c(N2CCCc3cc(-c4cnn(CS(C)(=O)=O)c4)c(C(F)F)cc32)n1` [Example 38, 8-[7-difluoro-methyl-6-(1-methanesulfonyl-methyl-1H-pyrazol-4-yl)-3,4-dihydro-2H-quinolin-1-yl]-[1,7] naphthyridine-6-carboxylic acid methylamide]: 14 nM.
Regarding `CNC(=O)c1cc2cccnc2c(N2CCCc3cc(-c4ccnnc4)c(C(F)F)cc32)n1` [Example 39, 8-(7-difluoro-methyl-6-pyrida-zine-4-yl-3,4-dihydro-2H-quinolin-1-yl)-[1,7] naphthyridine-6-carboxylic acid methylamide], the 50% inhibitory concentration (IC50) is 13 nM.
The figure for `CNC(=O)c1cc2ccccc2c(N2CCC(NC)c3cc(-c4cnn(C)c4)ccc32)n1` (stereo not drawn) [Example 40, 1-[4-methylamino-6-(1-methyl-1H-pyrazol-4-yl)-3,4-dihydro-2H-quinolin-1-yl]-isoquinoline-3-carboxylic acid methylamide] is 62 nM; for `CNC(=O)c1cc2ccccc2c(N2CCC(O)c3cc(-c4cnn(C)c4)ccc32)n1` (stereo not drawn) [Example 41, 1-[4-hydroxy-6-(1-methyl-1H-pyrazol-4-yl)-3,4-dihydro-2H-quinolin-1-yl]isoquinoline-3-carboxylic acid methylamide] it is 57 nM; for `CNC(=O)c1cc2ccccc2c(N2CCCc3cc(C4=CCNCC4)c(C(F)F)cc32)n1` [Example 42] it is 50 nM.
The figure for `CNC(=O)c1cc2cccnc2c(N2CCCc3cc(C4=CCN(C(C)=O)CC4)c(C(F)F)cc32)n1` [Example 43, 8-[6-(1-acetyl-1,2,3,6-tetrahydropyridin-4-yl)-7-difluoromethyl-3,4-dihydro-2H-quinolin-1-yl]-[1,7]naphthyridine-6-carboxylic acid methylamide] is 6.7 nM; for `CNC(=O)c1cc2cccnc2c(N2CCCc3cc(C4=CCN(C)CC4)c(C(F)F)cc32)n1` [Example 44, 8-[7-difluoromethyl-6-(1-methyl-1,2,3,6-tetrahydropyridin-4-yl)-3,4-dihydro-2H-quinolin-1-yl]-[1,7]naphthyridine-6-carboxylic acid methylamide] it is 64 nM; for `CNC(=O)c1cc2cccnc2c(N2CCCc3cc(C4=CCN(S(C)(=O)=O)CC4)c(C(F)F)cc32)n1` [Example 45, 8-[7-difluoromethyl-6-(1-methanesulfonyl-1,2,3,6-tetrahydropyridin-4-yl)-3,4-dihydro-2H-quinolin-1-yl]-[1,7]naphthyridine-6-carboxylic acid methylamide] it is 8.5 nM.
In the case of `CNC(=O)c1cc2cccnc2c(N2CCCc3cc(C4CCN(C(C)=O)CC4)c(C(F)F)cc32)n1` [Example 46, 8-[6-(1-acetylpiperidin-4-yl)-7-difluoromethyl-3,4-dihydro-2H-quinolin-1-yl]-[1,7]naphthyridine-6-carboxylic acid methylamide], the IC50 was determined as 5.4 nM.
On to `CNC(=O)c1cc2ncccc2c(N2CCCc3cc(C4CCN(C(C)=O)CC4)c(C(F)F)cc32)n1` [Example 47, 5-[6-(1-acetylpiperidin-4-yl)-7-difluoro-methyl-3,4-dihydro-2H-quinolin-1-yl]-[1,6] naphthyridine-7-carboxylic acid methylamide], for which the IC50 stood at 31 nM.
Regarding `CNC(=O)c1cc2cnccc2c(N2CCCc3cc(C4CCN(C(C)=O)CC4)c(C(F)F)cc32)n1` [Example 48, 1-[6-(1-acetylpiperidin-4-yl)-7-difluoro-methyl-3,4-dihydro-2H-quinolin-1-yl]-[2,6] naphthyridine-3-carboxylic acid methylamide], the IC50 came to 13 nM.
As to `CNC(=O)c1cc2ccncc2c(N2CCCc3cc(C4CCN(C(C)=O)CC4)c(C(F)F)cc32)n1` [Example 49, 1-[6-(1-acetylpiperidin-4-yl)-7-difluoro-methyl-3,4-dihydro-2H-quinolin-1-yl]-[2,7] naphthyridine-3-carboxylic acid methylamide], the 50% inhibitory concentration (IC50) came out at 12 nM.
As to `CNC(=O)c1cc2cc(Cl)cnc2c(N2CCCc3cc(C4CCN(C(C)=O)CC4)c(C(F)F)cc32)n1` [Example 50, 8-[6-(1-acetylpiperidin-4-yl)-7-difluoro-methyl-3,4-dihydro-2H-quinolin-1-yl]-3-chloro-[1,7] naphthyridine-6-carboxylic acid methylamide], the IC50 amounted to 54 nM.
